Reference: patent US20250332442A1, “ORAL HYGIENE DEVICE AND SYSETM, AND USE METHOD” (CHANGSHA […] IN[…]., LTD., priority 2023, published 2025)

Legend:
Assay type in all cases: cell-based
[1] = system: Actinobacillus actinomycetemcomitans; assay: photodynamic sterilization with periodontal light guide needle device (Embodiment 4); conditions: red light beam 630 nm, irradiation 30 s, tip of periodontal light guide needle
From the text: The device of Embodiment 4 and photosensitizer toluidine blue O are used in cooperation to carry out photodynamic sterilization of Actinobacillus actinomycetemcomitans, and a red light beam with a wavelength of 630 nm is selected to irradiate for 30 s.

Porphyromonas gingivalis [2] = assay: photodynamic sterilization experiment with constant-current source device (Embodiment 12); conditions: red light 630 nm and blue light 430 nm, irradiation 30 seconds, device of Embodiment 12
From the text: (§1) The device of Embodiment 12 and photosensitizer toluidine blue O are used in cooperation to carry out the photodynamic sterilization experiment on Porphyromonas gingivalis and Enterococcus faecalis. A red light beam with a wavelength of 630 nm and a blue light beam with a wavelength of 430 nm are used to irradiate for 30 seconds.

Enterococcus faecalis = assay: as above; conditions: red light 630 nm and blue light 430 nm, irradiation 30 seconds, device of Embodiment 12
From the text: as §1

Porphyromonas gingivalis [3] = assay: photodynamic sterilization with pure flat light guide needle device (Embodiment 8); conditions: red light beam 630 nm, irradiation 30 s, tail end of pure flat light guide needle
From the text: The device of Embodiment 8 and photosensitizer toluidine blue O are used in cooperation to carry out photodynamic sterilization of Porphyromonas gingivalis, and a red light beam with a wavelength of 630 nm is selected to irradiate for 30 s.

[4] = system: Enterococcus faecalis ATCC2921; assay: photodynamic sterilization experiment with root canal light guide needle device; conditions: red-light beam 630 nm, irradiation 30 s, tip of root canal light guide needle
Description: The photodynamic sterilization experiment on Enterococcus faecalis ATCC2921 is carried out using the device provided by the present disclosure and the photosensitizer toluidine blue O, and a red-light beam with a wavelength of 630 nm is selected to irradiate for 30 s.

Measured: sterilization efficiency

Cc1cc2nc3ccc(=[N+](C)C)cc-3sc2cc1N [toluidine blue O]
99%: all assays above
